In patent publication US20050090659A1, “Phospholepid derivatives of nucleosides as antitumaorl medicaments” (priority 2001, published 2005):
Like-named read-outs stand apart in the source and are kept apart here. Marks after values point to notes of the source that are not given here.

What was measured:
MethA fibrosarcoma = details: for percent inhibition relative to the control values of group 1, Day 21 / percent inhibition relative to the control values of group 1, Day 28: + means increase; for Effect on tumor growth (antitumoral / antiproliferative), in words: MethA fibrosarcoma model, 3-100 mg/kg once weekly i.p.; for Tumor volume Day 21 / Tumor volume Day 28: median of 10 animals, once weekly i.p.
Source text: The substances, 5-fluoro-2′-deoxyuridine-5′-phosphoric acid-(3-dodecyl-thio-2-decyloxy)propylester (substance A) and 3′-azido-3′-deoxythymidine-5′-phosphoric acid-(3-dodecylthio-2-decyloxy)propylester (substance B), have been tested in the murine MethA fibrosarcoma model, amongst other tests, under in-vivo conditions for their antitumoral or antiproliferative potency and efficacy.
MethA fibrosarcoma cells were propagated intraperitoneal (i.p.) in the form of ascites tumor in female CB6F1 mice (Charles River Laboratories, Sulzfeld, Germany). For the entire duration of the tests, the animals were kept in macrolon cages under laminar flow conditions at 23±1° C. room temperature, 55±15% relative humidity and a light-dark cycle of 12 h each. […] Prior to enrolment in the corresponding experiment, the animals were accustomed to the conditions for at least 14 days. The animals were routinely checked for infection by murine viruses.
To test the active substance, female CB6F1 mice 6-8 weeks of age were inoculated with 1×10^5 MethA fibrosarcoma cells per mouse by the subcutaneous (s.c.) route. The tumor growth in control group mice and in animals of the verum-treated groups was determined regularly in weekly intervals by measuring the two perpendicular tumor diameters as described in Hermann D. B. J., Pahlke W., Opitz H.-G. and Bicker U., Cancer Treatment Reviews, 17, 247-252, 1990. The test substances were tested in a dose-dependent fashion with once weekly i.p. administration in phosphate-buffered saline (PBS). Animals in the control group were treated with placebo (PBS).
Tumor volumes on days 21 and 28 after tumor cell inoculation are expressed as medians of 10 animals per experimental group.

K562 cells = assay: Proliferation experiments with combinations, WST-1 colorimetry; type: cell-based; details: for reduction of the IC50 value of the combination partner in combination with substance A: substance A at a concentration just short of an antiproliferative effect
Method: The effect of the combination containing substance A and cisplatin, doxorubicin, vincristine, and camptothecin, was tested in proliferation experiments. For this purpose, substance A was dissolved in medium at a stock concentration of 1 mg/ml. The other substances were dissolved in water or DMSO (dimethylsulfoxide) at the same stock concentration of 1 mg/ml. The series' of experiments were performed in 96-well plates. […] Cells in the absence of substance and pure medium served as the controls. The in-vitro activity of the test substances was determined by colorimetry on the basis of cleavage of the tetrazolium salt, WST-1 (Roche Molecular Biochemicals, Mannheim, Del.). For this purpose, the cultures were incubated with 10 μl WST for 4 hours. Then the plates were shaken gently. The optical density was measured with an ELISA reader (Spectra MAX 340PC, Molecular Devices, Ismaning, Del.) at wavelengths from 440 to 650 nm. The IC50 value was determined for each substance. In the case of the combination, one of the substances was used at a concentration just short of showing an antiproliferative effect and the IC50 value of the combination was then determined after the addition of the second substance.

[1] = for Blood levels: HB / Blood levels: HCT / Blood levels: MCH / Blood levels: MCHC / Blood levels: MCV / Blood levels: PLT / Blood levels: RBC / Blood levels: WBC / Organ weight: Brain / Organ weight: Colon / Organ weight: Heart / Organ weight: Intestines / Organ weight: Kidney / Organ weight: Liver / Organ weight: Lungs / Organ weight: Ovaries / Organ weight: Spleen / Organ weight: Stomach / Bone marrow cell count: mean ± SEM; for Bone marrow cell count: 10 animals; for Body weight: median
Method: Substance A was tested in female NMRI mice for its tolerability. The animals were kept under the same conditions as described in Example 1.
Female NMRI mice, 6-8 weeks of age (Charles River Laboratories, Sulzfeld, Germany), were treated with 1 or 1.5 g/kg of substance A administered by an esophageal probe. Subsequently, the following toxicity parameters were determined: • Blood counts, including white blood cell concentration (WBC), red blood cells concentration (RBC), hemoglobin (HB), hematocrit (HCT), platelet concentration (PLT), mean corpuscular volume (MCV), mean corpuscular hemoglobin (MCH) and mean corpuscular hemoglobin concentration (MCHC), • Bone marrow cell count, i.e. number of bone marrow cells per femur (M/femur), • Body weight • Organ weights, including weight of colon, heart, brain, intestines, lungs, liver, stomach, spleen, kidneys, ovaries.

[2] = 3 mg/kg/application, day 21 after tumor cell inoculation
[3] = partner at a concentration just short of an antiproliferative effect
[4] = very high dosage (1 or 1.5 g/kg)

In the case of `CCCCCCCCCCCCSCC(COP(=O)(O)OC[C@H]1O[C@@H](n2cc(F)c(=O)[nH]c2=O)C[C@@H]1O)OCCCCCCCCCC` (some centres unmarked) [Substance A, 5-fluoro-2′-deoxyuridine-5′-phosphoric acid-(3-dodecyl-thio-2-decyloxy)propylester], the “percent inhibition relative to the control values of group 1, Day 21” value (MethA fibrosarcoma; 3 mg/kg/application, day 21) was 59.1%, the “percent inhibition relative to the control values of group 1, Day 28” value (MethA fibrosarcoma; 3 mg/kg/application) was 57.6% and the “percent inhibition relative to the control values of group 1, Day 21” value (MethA fibrosarcoma; 30 mg/kg/application, day 21) was 89.7%. For the same compound, the “percent inhibition relative to the control values of group 1, Day 28” value (MethA fibrosarcoma; 30 mg/kg/application) was 87.2%, the “percent inhibition relative to the control values of group 1, Day 21” value (MethA fibrosarcoma; 100 mg/kg/application, day 21) was 91.1% and the “percent inhibition relative to the control values of group 1, Day 28” value (MethA fibrosarcoma; 100 mg/kg/application) was 92.2%. The “Effect on tumor growth (antitumoral / antiproliferative), in words” value (MethA fibrosarcoma) was “inhibits tumor growth highly significantly and in a dose- and time-dependent fashion”, the “Tumor volume Day 21” value (MethA fibrosarcoma; [2]) was 1.649 mm^3 and the “Tumor volume Day 28” value (MethA fibrosarcoma; 3 mg/kg/application) was 4.163 mm^3. The “Tumor volume Day 21” value (MethA fibrosarcoma; 30 mg/kg/application, day 21) was 416 mm^3, the “Tumor volume Day 28” value (MethA fibrosarcoma; 30 mg/kg/application) was 1.254 mm^3 and the “Tumor volume Day 21” value (MethA fibrosarcoma; 100 mg/kg/application, day 21) was 357 mm^3. The “Tumor volume Day 28” value (MethA fibrosarcoma; 100 mg/kg/application) was 762 mm^3, the “reduction of the IC50 value of substance A in combination with camptothecin” value (K562 cells; [3]) was “approx. 40%” and the “reduction of the IC50 value of substance A in combination with cisplatin” value (K562 cells; [3]) was 25%. For the same compound, the “reduction of the IC50 value of substance A in combination with doxorubicin” value (K562 cells; [3]) was “approx. 30%”, the “reduction of the IC50 value of substance A in combination with vincristine” value (K562 cells; [3]) was “approx. 60%” and the “Blood levels: HB” value ([1]; 1 g/kg) was 17850 ± 390 µg/mL. For the same compound, the “Blood levels: HCT” value ([1]; 1 g/kg) was 47.93 ± 1.16%, the “Blood levels: MCH” value ([1]; 1 g/kg) was 19.28 ± 0.22 pg and the “Blood levels: MCHC” value ([1]; 1 g/kg) was 37.29 ± 0.44 g/dL. The “Blood levels: MCV” value ([1]; 1 g/kg) was 51.50 ± 0.58 fL, the “Blood levels: PLT” value ([1]; 1 g/kg) was 1153 ± 41 k/μl and the “Blood levels: RBC” value ([1]; 1 g/kg) was 9.31 ± 0.23 M/μl. For the same compound, the “Blood levels: WBC” value ([1]; 1 g/kg) was 14.34 ± 2.18 k/μl, the “Organ weight: Brain” value ([1]; 1 g/kg) was 399 ± 8 g and the “Organ weight: Colon” value ([1]; 1 g/kg) was 373 ± 15 g. The “Organ weight: Heart” value ([1]; 1 g/kg) was 133 ± 4 g, the “Organ weight: Intestines” value ([1]; 1 g/kg) was 1.622 ± 61 g and the “Organ weight: Kidney” value ([1]; 1 g/kg) was 361 ± 17 g. For the same compound, the “Organ weight: Liver” value ([1]; 1 g/kg) was 1.602 ± 42 g, the “Organ weight: Lungs” value ([1]; 1 g/kg) was 226 ± 9 g and the “Organ weight: Ovaries” value ([1]; 1 g/kg) was 183 ± 17 g. For the same compound, the “Organ weight: Spleen” value ([1]; 1 g/kg) was 125 ± 9 g, the “Organ weight: Stomach” value ([1]; 1 g/kg) was 232 ± 7 g and the “Bone marrow cell count” value ([1]; 1 g/kg) was 28.48 ± 0.86 M/Femur. For the same compound, the Body weight ([1]; 1 g/kg) was 28.7^c g, the “Tolerability parameters compared to the placebo-treated control group, in words” value ([1]; 1 or 1.5 g/kg of body weight) was “no significant reduction in the tolerability parameters” and the “Blood levels: HB” value ([1]; 1.5 g/kg) was 15790 ± 920 µg/mL. The “Blood levels: HCT” value ([1]; 1.5 g/kg) was 43.42 ± 2.77%, the “Blood levels: MCH” value ([1]; 1.5 g/kg) was 19.09 ± 0.37 pg and the “Blood levels: MCHC” value ([1]; 1.5 g/kg) was 36.53 ± 0.38 g/dL. The “Blood levels: MCV” value ([1]; 1.5 g/kg) was 52.09 ± 0.81 fL, the “Blood levels: PLT” value ([1]; 1.5 g/kg) was 1431 ± 172 k/μl and the “Blood levels: RBC” value ([1]; 1.5 g/kg) was 8.34 ± 0.56 M/μl. The “Blood levels: WBC” value ([1]; 1.5 g/kg) was 16.97 ± 6.05 k/μl, the “Organ weight: Brain” value ([1]; 1.5 g/kg) was 387 ± 18 g and the “Organ weight: Colon” value ([1]; 1.5 g/kg) was 392 ± 29 g. For the same compound, the “Organ weight: Heart” value ([1]; 1.5 g/kg) was 126 ± 9 g, the “Organ weight: Intestines” value ([1]; 1.5 g/kg) was 1.807 ± 112 g and the “Organ weight: Kidney” value ([1]; 1.5 g/kg) was 351 ± 26 g. For the same compound, the “Organ weight: Liver” value ([1]; 1.5 g/kg) was 1.739 ± 81 g, the “Organ weight: Lungs” value ([1]; 1.5 g/kg) was 206 ± 9 g and the “Organ weight: Ovaries” value ([1]; 1.5 g/kg) was 203 ± 33 g. The “Organ weight: Spleen” value ([1]; 1.5 g/kg) was 204 ± 26 g, the “Organ weight: Stomach” value ([1]; 1.5 g/kg) was 232 ± 16 g and the “Bone marrow cell count” value ([1]; 1.5 g/kg) was 31.44 ± 1.51 M/Femur. For the same compound, the Body weight ([1]; 1.5 g/kg) was 27.9^c g, the “Bone marrow suppression, hematotoxicity or unspecific-toxic organ intolerance, in words” value [1, 4] was “no evidence of bone marrow suppression, hematotoxicity or unspecific-toxic organ intolerance” and the “Unspecific-toxic properties under in-vivo conditions, in words” value [1, 4] was “no unspecific-toxic properties”.
In the case of `CCCCCCCCCCCCSCC(COP(=O)(O)OC[C@H]1O[C@@H](n2cc(C)c(=O)[nH]c2=O)C[C@@H]1N=[N+]=[N-])OCCCCCCCCCC` (some centres unmarked) [Substance B, 3′-azido-3′-deoxythymidine-5′-phosphoric acid-(3-dodecylthio-2-decyloxy)propylester, reference compound], the “percent inhibition relative to the control values of group 1, Day 21” value (MethA fibrosarcoma; 3 mg/kg/application, day 21) was 0.8%, the “percent inhibition relative to the control values of group 1, Day 28” value (MethA fibrosarcoma; 3 mg/kg/application) was “+4.1%” and the “percent inhibition relative to the control values of group 1, Day 21” value (MethA fibrosarcoma; 30 mg/kg/application, day 21) was “+1.7%”. For the same compound, the “percent inhibition relative to the control values of group 1, Day 28” value (MethA fibrosarcoma; 30 mg/kg/application) was “+1.4%”, the “percent inhibition relative to the control values of group 1, Day 21” value (MethA fibrosarcoma; 100 mg/kg/application, day 21) was 0.3% and the “percent inhibition relative to the control values of group 1, Day 28” value (MethA fibrosarcoma; 100 mg/kg/application) was “+2.8%”. For the same compound, the “Effect on tumor growth (antitumoral / antiproliferative), in words” value (MethA fibrosarcoma) was “no antitumoral or antiproliferative properties”, the “Tumor volume Day 21” value (MethA fibrosarcoma; [2]) was 3.998 mm^3 and the “Tumor volume Day 28” value (MethA fibrosarcoma; 3 mg/kg/application) was 10.228 mm^3. For the same compound, the “Tumor volume Day 21” value (MethA fibrosarcoma; 30 mg/kg/application, day 21) was 4.102 mm^3, the “Tumor volume Day 28” value (MethA fibrosarcoma; 30 mg/kg/application) was 9.963 mm^3 and the “Tumor volume Day 21” value (MethA fibrosarcoma; 100 mg/kg/application, day 21) was 4.021 mm^3. For the same compound, the “Tumor volume Day 28” value (MethA fibrosarcoma; 100 mg/kg/application) was 10.098 mm^3.
In the case of `CC[C@@]1(O)C(=O)OCc2c1cc1n(c2=O)Cc2cc3ccccc3nc2-1` [camptothecin, reference compound], the “reduction of the IC50 value of the combination partner in combination with substance A” value (“reduction of the IC50 value … with substance A” below) (K562 cells) was “approx. 90%”.
With `N.N.[Cl][Pt][Cl]` [cisplatin, reference compound] the “reduction of the IC50 value … with substance A” value (K562 cells) was 50%.
For `COc1cccc2c1C(=O)c1c(O)c3c(c(O)c1C2=O)C[C@@](O)(C(=O)CO)C[C@@H]3O[C@H]1C[C@H](N)[C@H](O)[C@H](C)O1` [doxorubicin, reference compound], the “reduction of the IC50 value … with substance A” value (K562 cells) was “approx. 50%”.
With `CC[C@]1(O)C[C@H]2CN(CCc3c([nH]c4ccccc34)[C@@](C(=O)OC)(c3cc4c(cc3OC)N(C=O)[C@H]3[C@@](O)(C(=O)OC)[C@H](OC(C)=O)[C@]5(CC)C=CCN6CC[C@]43[C@@H]65)C2)C1` [vincristine, reference compound] the “reduction of the IC50 value … with substance A” value (K562 cells) was “approx. 65%”.
